Laboratory results as given in PMC8000041, “New Insights into the Metabolism of the Flavanones Eriocitrin and Hesperidin: A Comparative Human Pharmacokinetic Study” (Antioxidants, 2021).

What was measured:
[1] = parameters: method as in PMID 28970059; conditions: eriocitrin vs. hesperidin ref 28; cited from earlier work
[2] = Urinary excretion of flavanone-derived metabolites after single intake of lemon or orange extract (UPLC-ESI-QTOF-MS); format: in vivo, human
In short: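 Randomized double-blind crossover, single oral dose of orange extract (260 mg hesperidin) or lemon extract (260 mg eriocitrin) with 2-week washout and flavanone-restricted diet. Urinary flavanone conjugates by targeted UPLC-ESI-QTOF-MS (0.01 m/z window), quantified against standards or, for eriodictyol/homoeriodictyol conjugates, via UV-based relative response factors.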

[3] = Plasma metabolites and pharmacokinetics after single intake of lemon or orange extract (UPLC-ESI-QTOF-MS, non-compartmental analysis); format: in vivo, human
In short: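 Randomized double-blind crossover single-dose trial with a 2-week washout: orange extract (1.95 g, 260 mg hesperidin) or lemon extract (3.1 g, 260 mg eriocitrin) in capsules. Plasma metabolites were measured by targeted UPLC-ESI-QTOF-MS against standards, or via UV-based relative response factors. PK parameters came from non-compartmental analysis.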

Row | Compound | Solubility [1] | Urinary excretion F1 ([2]; lemon extract (3.1 g, 260 mg eriocitrin), urine fraction 0-4 h, mean ± SD) | Urinary excretion F2 ([2]; lemon extract, urine fraction 4-8 h, mean ± SD) | Urinary excretion F3 ([2]; lemon extract, urine fraction 8-10 h, mean ± SD) | Urinary excretion F4 ([2]; lemon extract, urine fraction 10-24 h, mean ± SD) | Occurrence Urine LE (number of volunteers in whom the metabolite was detected) ([2]; urine, after consuming lemon extract, n = 16 volunteers) | Occurrence Urine OE (number of volunteers in whom the metabolite was detected) ([2]; urine, after consuming orange extract, n = 16 volunteers) | Occurrence Plasma LE (number of volunteers in whom the metabolite was detected) ([3]; after consuming lemon extract, n = 16 volunteers) | Occurrence Plasma OE (number of volunteers in whom the metabolite was detected) ([3]; after consuming orange extract, n = 16 volunteers) | AUC(0-t) ([3]; after lemon extract, mean ± SD) | Cmax ([3]; after lemon extract, mean ± SD) | Tmax ([3]; after lemon extract, mean ± SD)
1 | C[C@@H]1O[C@@H](OC[C@H]2O[C@@H](Oc3cc(O)c4c(c3)O[C@H](c3ccc(O)c(O)c3)CC4=O)[C@H](O)[C@@H](O)[C@@H]2O)[C@H](O)[C@H](O)[C@H]1O [eriocitrin, Eriocitrin] | higher solubility |  |  |  |  |  |  |  |  |  |  | 
2 | Homoeriodictyol sulfate [M10] |  | 3.8 ± 3.2 µg/mg creatinine | 4.0 ± 5.5 µg/mg creatinine | 3.6 ± 4.1 µg/mg creatinine | 0.5 ± 0.4 µg/mg creatinine | 16 | 0 | 16 | 3 | 1778 ± 2257 nM·h | 0.479 ± 0.524 µM | 6.5 ± 2.2 h
